We go through one molecule from ChEMBL document CHEMBL6083277, “Discovery of SZJK-0421: A Novel Potent, Low Toxicity, Selective Second Generation of CRM1 Inhibitor for the Treatment of Both Hematological and Solid Tumors” (J Med Chem, 2024).

pIC50: −log10 of the molar value. Active and inactive are the calls of the source. No cut-off for these calls is given here. Bounds are passed on as bounds.

Data set [1] concerns MOLM-13. The data set can be described thus: Antiproliferative activity against human MOLM-13 cells assessed as inhibition of cell growth incubated for 72 hrs by celltiter-glo assay. The format is functional, cell-based. Particulars: MOLM-13, 72 h. Background: ATP-based viability assays read luminescence as a measure of living cells.
Data set [2] concerns the target Exportin-1 (Homo sapiens) (UniProt O14980). The data set can be described thus: Inhibition of CRM1 in human MM1.S cells assessed as accumulation of IkappaB protein level at 0.5 to 1 uM incubated for 24 hrs by Western blot analysis. The format is cell-based. The settings on record: dose 0.5-1 µM. On the technique in general: In western blotting, separated proteins are transferred to a membrane and probed.

The test system of data set [3] is MM1.S. The data set can be described thus: Induction of apoptosis in human MM1.S cells assessed as increase in FOXO3A signal intensity. The format is functional, cell-based.
Data set [4] in a line: Metabolic stability in dog liver microsomes assessed as half life measured upto 60 mins in presence of NADPH by LC/MS-MS analysis. It is filed as ADME, Canis lupus familiaris, Microsome. (Microsomes from liver hold many membrane-bound enzymes, among them those of drug oxidation.)
Data set [5] can be described thus: Metabolic stability in mouse liver microsomes assessed as intrinsic clearance measured upto 60 mins in presence of NADPH by LC/MS-MS analysis. It is filed as ADME, Microsome. Particulars: read-out: CLH.
A short description of data set [6]: Tmax in male Sprague-Dawley rat at 10 mg/kg, po measured upto 30 hrs by LC-MS/MS analysis. It is filed as ADME, organism-based. Particulars: in vivo.
For data set [7], the system named is MM1.S. The data set can be described thus: Antitumor activity against human MM1.S cells xenografted in NOD-SCID mouse assessed as tumor growth inhibition at 60 mg/kg, po qd measured upto 21 days. It is filed as functional. Particulars: 504 h, time <= 21 day, read-out: TGI.

Sequence of Exportin-1 (Homo sapiens) (O14980 whole entry): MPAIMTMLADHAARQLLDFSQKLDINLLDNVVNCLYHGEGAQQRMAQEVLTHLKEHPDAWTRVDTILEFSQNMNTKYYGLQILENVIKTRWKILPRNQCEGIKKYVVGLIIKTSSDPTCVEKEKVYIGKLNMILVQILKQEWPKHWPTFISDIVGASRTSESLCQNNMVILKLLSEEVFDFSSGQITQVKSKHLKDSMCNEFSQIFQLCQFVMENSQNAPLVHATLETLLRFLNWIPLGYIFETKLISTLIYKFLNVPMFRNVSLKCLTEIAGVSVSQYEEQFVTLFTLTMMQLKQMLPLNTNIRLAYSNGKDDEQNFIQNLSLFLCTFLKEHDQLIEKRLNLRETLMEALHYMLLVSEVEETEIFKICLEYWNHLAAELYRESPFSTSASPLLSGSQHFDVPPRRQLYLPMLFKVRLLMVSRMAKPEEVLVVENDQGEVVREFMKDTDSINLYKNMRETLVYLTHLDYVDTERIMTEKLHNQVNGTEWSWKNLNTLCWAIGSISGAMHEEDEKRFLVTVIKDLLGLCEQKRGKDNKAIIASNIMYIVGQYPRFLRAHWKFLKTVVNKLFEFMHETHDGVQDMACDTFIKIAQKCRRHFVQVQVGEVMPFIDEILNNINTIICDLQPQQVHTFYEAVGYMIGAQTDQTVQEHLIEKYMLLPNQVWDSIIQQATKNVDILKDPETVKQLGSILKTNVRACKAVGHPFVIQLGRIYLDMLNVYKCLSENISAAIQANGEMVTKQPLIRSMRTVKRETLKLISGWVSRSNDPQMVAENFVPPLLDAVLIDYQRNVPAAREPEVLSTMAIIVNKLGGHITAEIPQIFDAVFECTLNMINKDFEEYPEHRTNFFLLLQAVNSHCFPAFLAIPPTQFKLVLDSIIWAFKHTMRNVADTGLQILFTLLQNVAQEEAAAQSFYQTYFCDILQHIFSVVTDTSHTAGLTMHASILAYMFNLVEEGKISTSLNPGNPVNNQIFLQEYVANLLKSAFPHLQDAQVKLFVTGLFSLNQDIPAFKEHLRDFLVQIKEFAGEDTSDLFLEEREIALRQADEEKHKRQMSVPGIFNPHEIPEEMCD

As to `CONC(=O)/C(=C/n1cnc(-c2cc(C(F)(F)F)cc(C(F)(F)F)c2)n1)c1cncnc1`, the negative-log IC50 (pIC50) (in general, the IC50 on a negative log10 scale, so that one unit is a factor of ten) in data set [1] was 6.32. In addition, the outcome in data set [2] and in data set [3] was Active. For the same molecule, the half-life (in general, how long it takes for the measured level to halve) in data set [4] is over 120 min. For the same molecule, the microsomal CLint in data set [5] stood at 12.6 µL/min/mg. In data set [6], the time of peak concentration (Tmax) (as a rule, the time at which the peak concentration occurs) came to 18 min. Besides, the inhibition in vivo at 60 mg/kg in data set [7] was 87%.
